# In US20020111274A1, “1-alkyl-3-[1-(substituted phenyl) benzotriazol-6-yl] uracils” (BASF Aktiengesellschaft, priority 2000, published 2002):
# What was measured:
# Parameters in all cases: scale not given here
# [1] = system: TRZAWR Wheat, Winter, cv Riband; test: Preemergence herbicidal evaluation, TRZAWR; format: in vivo, Triticum aestivum; conditions: preemergence
# How it was run: (§1)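 Visual ratings were taken four to five weeks after application. Before that, cups sown with seed in potting soil received a spray of compound dissolved in aqueous acetone, equivalent to about 0.013 to 0.800 kg/ha, and stood on greenhouse benches under conventional care.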
# SETVI Foxtail, Green [2] = test: Preemergence herbicidal evaluation, SETVI; format: in vivo, Setaria viridis, (L.) Beau; conditions: preemergence
# How it was run: as §1
# ABUTH Velvetleaf [3] = test: Postemergence herbicidal evaluation, ABUTH; format: in vivo, Abutilon theophrasti, Medic.; conditions: postemergence spray, rated about two-three weeks after treatment
# How it was run: (§2)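 Visual injury rating ~2–3 wk post-spray; replicate tests averaged. Two-week-old seedlings; foliar spray at 40 psi; 0.006–0.400 kg ai/ha in 80/20 acetone/water + 1.0% methylated seed oil.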
# [4] = system: IPOHE Morningglory, Ivyleaf; test: Preemergence herbicidal evaluation, IPOHE; format: in vivo, Ipomoea hederacea, (L.) Jacq.; conditions: preemergence
# How it was run: as §1
# ORYSAT Rice, Tebonnet [5] = test: Postemergence herbicidal evaluation, ORYSAT; format: in vivo, Oryza sativa, (L.); conditions: postemergence spray, rated about two-three weeks after treatment
# How it was run: as §2
# GLXMAW Soybean, Williams [6] = test: Postemergence herbicidal evaluation, GLXMAW; format: in vivo, Glycine max, (L.) Merr. cv Williams; conditions: postemergence spray, rated about two-three weeks after treatment
# How it was run: as §2
# [7] = system: TRZAWR Wheat, Winter, cv Riband; test: Postemergence herbicidal evaluation, TRZAWR; format: in vivo, Triticum aestivum; conditions: postemergence spray, rated about two-three weeks after treatment
# How it was run: as §2
# [8] = system: CHEAL Lambsquarters, Common; test: Preemergence herbicidal evaluation, CHEAL; format: in vivo, Chenopodium album, L.; conditions: preemergence
# How it was run: as §1
# GALAP Galium [9] = test: Postemergence herbicidal evaluation, GALAP; format: in vivo, Galium aparine; conditions: postemergence spray, rated about two-three weeks after treatment
# How it was run: as §2
# ABUTH Velvetleaf [10] = test: Preemergence herbicidal evaluation, ABUTH; format: in vivo, Abutilon theophrasti, Medic.; conditions: preemergence
# How it was run: as §1
# SETVI Foxtail, Green [11] = test: Postemergence herbicidal evaluation, SETVI; format: in vivo, Setaria viridis, (L.) Beau; conditions: postemergence spray, rated about two-three weeks after treatment
# How it was run: as §2
# [12] = system: IPOHE Morningglory, Ivyleaf; test: Postemergence herbicidal evaluation, IPOHE; format: in vivo, Ipomoea hederacea, (L.) Jacq.; conditions: postemergence spray, rated about two-three weeks after treatment
# How it was run: as §2
# GLXMAW Soybean, Williams [13] = test: Preemergence herbicidal evaluation, GLXMAW; format: in vivo, Glycine max, (L.) Merr. cv Williams; conditions: preemergence
# How it was run: as §1
# AMBEL Ragweed, Common [14] = test: Postemergence herbicidal evaluation, AMBEL; format: in vivo, Ambrosia artemisifolia, L.; conditions: postemergence spray, rated about two-three weeks after treatment
# How it was run: as §2
# AMBEL Ragweed, Common [15] = test: Preemergence herbicidal evaluation, AMBEL; format: in vivo, Ambrosia artemisifolia, L.; conditions: preemergence
# How it was run: as §1
# ORYSAT Rice, Tebonnet [16] = test: Preemergence herbicidal evaluation, ORYSAT; format: in vivo, Oryza sativa, (L.); conditions: preemergence
# How it was run: as §1
# ECHOG Barnyardgrass [17] = test: Preemergence herbicidal evaluation, ECHOG; format: in vivo, Echinochloa crus-galli, (L.) Beau; conditions: preemergence
# How it was run: as §1
# ECHOG Barnyardgrass [18] = test: Postemergence herbicidal evaluation, ECHOG; format: in vivo, Echinochloa crus-galli, (L.) Beau; conditions: postemergence spray, rated about two-three weeks after treatment
# How it was run: as §2
# [19] = system: CHEAL Lambsquarters, Common; test: Postemergence herbicidal evaluation, CHEAL; format: in vivo, Chenopodium album, L.; conditions: postemergence spray, rated about two-three weeks after treatment
# How it was run: as §2
# GALAP Galium [20] = test: Preemergence herbicidal evaluation, GALAP; format: in vivo, Galium aparine; conditions: preemergence
# How it was run: as §1
# ZEAMX Corn, Field [21] = test: Postemergence herbicidal evaluation, ZEAMX; format: in vivo, Zea mays, L. (Sammel-Bezeichnung); conditions: postemergence spray, rated about two-three weeks after treatment
# How it was run: as §2
# CASOB Sicklepod [22] = test: Postemergence herbicidal evaluation, CASOB; format: in vivo, Cassia obtusifolia, L.; conditions: postemergence spray, rated about two-three weeks after treatment
# How it was run: as §2
# ZEAMX Corn, Field [23] = test: Preemergence herbicidal evaluation, ZEAMX; format: in vivo, Zea mays, L. (Sammel-Bezeichnung); conditions: preemergence
# How it was run: as §1
# CASOB Sicklepod [24] = test: Preemergence herbicidal evaluation, CASOB; format: in vivo, Cassia obtusifolia, L.; conditions: preemergence
# How it was run: as §1
smiles,measurement,setting,value
CCc1ccc(-n2nnc3cc(F)c(-n4c(=O)cc(C(F)(F)F)n(C)c4=O)cc32)cc1COC [Example 28],TRZAWR herbicidal rating,[1]; rate 0.016 kg/ha,0.0
same,TRZAWR herbicidal rating,[1]; rate 0.032 kg/ha,0.0
same,TRZAWR herbicidal rating,[1]; rate 0.062 kg/ha,0.0
same,TRZAWR herbicidal rating,[1]; rate 0.125 kg/ha,0.0
same,SETVI herbicidal rating,"SETVI Foxtail, Green [2]; rate 0.016 kg/ha",0.0
same,SETVI herbicidal rating,"SETVI Foxtail, Green [2]; rate 0.032 kg/ha",2.0
same,SETVI herbicidal rating,"SETVI Foxtail, Green [2]; rate 0.062 kg/ha",4.0
same,SETVI herbicidal rating,"SETVI Foxtail, Green [2]; rate 0.125 kg/ha",9.0
same,Postemergence herbicidal rating ABUTH,ABUTH Velvetleaf [3]; 0.008 kg/ha,9.0
same,Postemergence herbicidal rating ABUTH,ABUTH Velvetleaf [3]; 0.016 kg/ha,9.0
same,Postemergence herbicidal rating ABUTH,ABUTH Velvetleaf [3]; 0.032 kg/ha,9.0
same,Postemergence herbicidal rating ABUTH,ABUTH Velvetleaf [3]; 0.062 kg/ha,9.0
same,IPOHE herbicidal rating,[4]; rate 0.016 kg/ha,0.0
same,IPOHE herbicidal rating,[4]; rate 0.032 kg/ha,0.0
same,IPOHE herbicidal rating,[4]; rate 0.062 kg/ha,1.0
same,IPOHE herbicidal rating,[4]; rate 0.125 kg/ha,1.0
same,Postemergence herbicidal rating ORYSAT,"ORYSAT Rice, Tebonnet [5]; 0.008 kg/ha",0.5
same,Postemergence herbicidal rating ORYSAT,"ORYSAT Rice, Tebonnet [5]; 0.016 kg/ha",2.0
same,Postemergence herbicidal rating ORYSAT,"ORYSAT Rice, Tebonnet [5]; 0.032 kg/ha",3.0
same,Postemergence herbicidal rating ORYSAT,"ORYSAT Rice, Tebonnet [5]; 0.062 kg/ha",5.5
same,Postemergence herbicidal rating GLXMAW,"GLXMAW Soybean, Williams [6]; 0.008 kg/ha",4.0
same,Postemergence herbicidal rating GLXMAW,"GLXMAW Soybean, Williams [6]; 0.016 kg/ha",5.0
same,Postemergence herbicidal rating GLXMAW,"GLXMAW Soybean, Williams [6]; 0.032 kg/ha",6.0
same,Postemergence herbicidal rating GLXMAW,"GLXMAW Soybean, Williams [6]; 0.062 kg/ha",6.5
same,Postemergence herbicidal rating TRZAWR,[7]; 0.008 kg/ha,2.5
same,Postemergence herbicidal rating TRZAWR,[7]; 0.016 kg/ha,4.5
same,Postemergence herbicidal rating TRZAWR,[7]; 0.032 kg/ha,4.5
same,Postemergence herbicidal rating TRZAWR,[7]; 0.062 kg/ha,5.5
same,CHEAL herbicidal rating,[8]; rate 0.016 kg/ha,3.0
same,CHEAL herbicidal rating,[8]; rate 0.032 kg/ha,9.0
same,CHEAL herbicidal rating,[8]; rate 0.062 kg/ha,9.0
same,CHEAL herbicidal rating,[8]; rate 0.125 kg/ha,9.0
same,Postemergence herbicidal rating GALAP,GALAP Galium [9]; 0.008 kg/ha,4.0
same,Postemergence herbicidal rating GALAP,GALAP Galium [9]; 0.016 kg/ha,4.0
same,Postemergence herbicidal rating GALAP,GALAP Galium [9]; 0.032 kg/ha,6.0
same,Postemergence herbicidal rating GALAP,GALAP Galium [9]; 0.062 kg/ha,8.0
same,ABUTH herbicidal rating,ABUTH Velvetleaf [10]; rate 0.032 kg/ha,2.0
same,ABUTH herbicidal rating,ABUTH Velvetleaf [10]; rate 0.062 kg/ha,9.0
same,ABUTH herbicidal rating,ABUTH Velvetleaf [10]; rate 0.125 kg/ha,9.0
same,Postemergence herbicidal rating SETVI,"SETVI Foxtail, Green [11]; 0.008 kg/ha",0.0
same,Postemergence herbicidal rating SETVI,"SETVI Foxtail, Green [11]; 0.016 kg/ha",3.0
same,Postemergence herbicidal rating SETVI,"SETVI Foxtail, Green [11]; 0.032 kg/ha",7.0
same,Postemergence herbicidal rating SETVI,"SETVI Foxtail, Green [11]; 0.062 kg/ha",9.0
same,Postemergence herbicidal rating IPOHE,[12]; 0.008 kg/ha,9.0
same,Postemergence herbicidal rating IPOHE,[12]; 0.016 kg/ha,9.0
same,Postemergence herbicidal rating IPOHE,[12]; 0.032 kg/ha,9.0
same,Postemergence herbicidal rating IPOHE,[12]; 0.062 kg/ha,9.0
same,GLXMAW herbicidal rating,"GLXMAW Soybean, Williams [13]; rate 0.016 kg/ha",0.0
same,GLXMAW herbicidal rating,"GLXMAW Soybean, Williams [13]; rate 0.032 kg/ha",0.0
same,GLXMAW herbicidal rating,"GLXMAW Soybean, Williams [13]; rate 0.062 kg/ha",0.0
same,GLXMAW herbicidal rating,"GLXMAW Soybean, Williams [13]; rate 0.125 kg/ha",0.0
same,Postemergence herbicidal rating AMBEL,"AMBEL Ragweed, Common [14]; 0.008 kg/ha",9.0
same,Postemergence herbicidal rating AMBEL,"AMBEL Ragweed, Common [14]; 0.016 kg/ha",9.0
same,Postemergence herbicidal rating AMBEL,"AMBEL Ragweed, Common [14]; 0.032 kg/ha",9.0
same,Postemergence herbicidal rating AMBEL,"AMBEL Ragweed, Common [14]; 0.062 kg/ha",9.0
same,AMBEL herbicidal rating,"AMBEL Ragweed, Common [15]; rate 0.016 kg/ha",0.0
same,AMBEL herbicidal rating,"AMBEL Ragweed, Common [15]; rate 0.032 kg/ha",0.0
same,AMBEL herbicidal rating,"AMBEL Ragweed, Common [15]; rate 0.062 kg/ha",1.0
same,AMBEL herbicidal rating,"AMBEL Ragweed, Common [15]; rate 0.125 kg/ha",7.0
same,ORYSAT herbicidal rating,"ORYSAT Rice, Tebonnet [16]; rate 0.016 kg/ha",0.0
same,ORYSAT herbicidal rating,"ORYSAT Rice, Tebonnet [16]; rate 0.032 kg/ha",0.0
same,ORYSAT herbicidal rating,"ORYSAT Rice, Tebonnet [16]; rate 0.062 kg/ha",0.0
same,ORYSAT herbicidal rating,"ORYSAT Rice, Tebonnet [16]; rate 0.125 kg/ha",0.0
same,ECHCG herbicidal rating,ECHOG Barnyardgrass [17]; rate 0.016 kg/ha,0.0
same,ECHCG herbicidal rating,ECHOG Barnyardgrass [17]; rate 0.032 kg/ha,0.0
same,ECHCG herbicidal rating,ECHOG Barnyardgrass [17]; rate 0.062 kg/ha,0.0
same,ECHCG herbicidal rating,ECHOG Barnyardgrass [17]; rate 0.125 kg/ha,7.0
same,Postemergence herbicidal rating ECHCG,ECHOG Barnyardgrass [18]; 0.008 kg/ha,0.0
same,Postemergence herbicidal rating ECHCG,ECHOG Barnyardgrass [18]; 0.016 kg/ha,0.0
same,Postemergence herbicidal rating ECHCG,ECHOG Barnyardgrass [18]; 0.032 kg/ha,1.0
same,Postemergence herbicidal rating ECHCG,ECHOG Barnyardgrass [18]; 0.062 kg/ha,1.0
same,Postemergence herbicidal rating CHEAL,[19]; 0.008 kg/ha,2.0
same,Postemergence herbicidal rating CHEAL,[19]; 0.016 kg/ha,4.0
same,Postemergence herbicidal rating CHEAL,[19]; 0.032 kg/ha,7.0
same,Postemergence herbicidal rating CHEAL,[19]; 0.062 kg/ha,9.0
same,GALAP herbicidal rating,GALAP Galium [20]; rate 0.016 kg/ha,0.0
same,GALAP herbicidal rating,GALAP Galium [20]; rate 0.032 kg/ha,0.0
same,GALAP herbicidal rating,GALAP Galium [20]; rate 0.062 kg/ha,0.0
same,GALAP herbicidal rating,GALAP Galium [20]; rate 0.125 kg/ha,9.0
same,Postemergence herbicidal rating ZEAMX,"ZEAMX Corn, Field [21]; 0.008 kg/ha",3.5
same,Postemergence herbicidal rating ZEAMX,"ZEAMX Corn, Field [21]; 0.016 kg/ha",6.0
same,Postemergence herbicidal rating ZEAMX,"ZEAMX Corn, Field [21]; 0.032 kg/ha",6.0
same,Postemergence herbicidal rating ZEAMX,"ZEAMX Corn, Field [21]; 0.062 kg/ha",7.5
same,Postemergence herbicidal rating CASOB,CASOB Sicklepod [22]; 0.008 kg/ha,0.0
same,Postemergence herbicidal rating CASOB,CASOB Sicklepod [22]; 0.016 kg/ha,0.0
same,Postemergence herbicidal rating CASOB,CASOB Sicklepod [22]; 0.032 kg/ha,1.0
same,Postemergence herbicidal rating CASOB,CASOB Sicklepod [22]; 0.062 kg/ha,3.0
same,ZEAMX herbicidal rating,"ZEAMX Corn, Field [23]; rate 0.016 kg/ha",0.0
same,ZEAMX herbicidal rating,"ZEAMX Corn, Field [23]; rate 0.032 kg/ha",3.0
same,ZEAMX herbicidal rating,"ZEAMX Corn, Field [23]; rate 0.062 kg/ha",4.0
same,ZEAMX herbicidal rating,"ZEAMX Corn, Field [23]; rate 0.125 kg/ha",5.0
same,CASOB herbicidal rating,CASOB Sicklepod [24]; rate 0.016 kg/ha,0.0
same,CASOB herbicidal rating,CASOB Sicklepod [24]; rate 0.032 kg/ha,0.0
same,CASOB herbicidal rating,CASOB Sicklepod [24]; rate 0.062 kg/ha,0.0
